Measurements taken from patent US10869931B2, “Polyethylene glycol-modified angiogenesis inhibitor HM-1 and application thereof” (NANJING ANJI BIOLOGICAL TECHNOLOGY CO.,LTD, priority 2016, dated 2020).
Marks after values point to notes of the source that are not given here. Where no end group is shown, it is not given here.

Tests used:
[1] = system: mouse spleen lymphocytes; test: ConA-stimulated mouse spleen lymphocyte proliferation (MTT); type: cell-based; conditions: ConA 5 μg/mL, 48 h
Procedure, shortened: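 Proliferation read by MTT (4 h), DMSO solubilisation and OD 570 nm, 5 replicates, after 48 h culture at 37° C. Cells were erythrocyte-depleted splenocytes at 5×10^6/mL in RPMI 1640 plus 10% calf serum; groups were blank, ConA and dexamethasone 0.02 mg/mL.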

[2] = system: Prostate cancer tumor cells; test: MTT proliferation inhibition, prostate cancer cells; type: cell-based, human; set-up: concentration or dose not given beside the values; conditions: 48 h
Procedure, shortened: (§1)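 Tumour cells plated at 2×10^4 cells/mL, attached overnight, then exposed to dilutions of mPEG-HM-1 for 48 h at 37 °C, 5% CO2. MTT added 4 h, formazan dissolved in DMSO, absorbance 570/630 nm; growth inhibition = 1 − treated/untreated, three independent repeats, mean±SD.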

[3] = system: xylene-induced ear swelling in Kunming mice; test: Xylene-induced ear swelling in mice; type: in vivo, mouse; conditions: for Swelling: 2 h after xylene; for Inhibition rate: ear swelling vs control
Procedure, shortened: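 Kunming mice were dosed once daily for 5 days (aspirin 200 mg/kg as positive control, saline as blank). One hour after the last dose, xylene was applied to the right ear, with the left ear as untreated reference. Ear punches were weighed 2 h later; swelling degree = right − left weight, rate = degree/left weight ×100%.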

[4] = system: Cervical cancer tumor cells; test: MTT proliferation inhibition, cervical cancer cells; type: cell-based, human; set-up: concentration or dose not given beside the values; conditions: 48 h
Procedure, shortened: as §1

[5] = system: Uterine cancer tumor cells; test: MTT proliferation inhibition, uterine cancer cells; type: cell-based, human; set-up: concentration or dose not given beside the values; conditions: 48 h
Procedure, shortened: as §1

[6] = system: Brain tumor cells; test: MTT proliferation inhibition, brain tumor cells; type: cell-based, human; set-up: concentration or dose not given beside the values; conditions: 48 h
Procedure, shortened: as §1

[7] = system: Lung cancer tumor cells; test: MTT proliferation inhibition, lung cancer cells; type: cell-based, human; set-up: concentration or dose not given beside the values; conditions: 48 h
Procedure, shortened: as §1

[8] = system: IL-1β production by mouse peritoneal macrophages; test: IL-1β production by mouse peritoneal macrophages (ELISA); type: cell-based; conditions: 48 h
Procedure, shortened: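 Starch-elicited mouse peritoneal macrophages (2×10^6 cells/mL), adhered 3 h, treated with low, medium and high concentrations of mPEG-HM-1 for 48 h; dexamethasone as positive control. Supernatant IL-1β quantified by sandwich ELISA at OD450.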

[9] = in vivo
[10] = system: Head and neck cancer tumor cells; test: MTT proliferation inhibition, head and neck cancer cells; type: cell-based, human; set-up: concentration or dose not given beside the values; conditions: 48 h
Procedure, shortened: as §1

[11] = system: Thyroid cancer tumor cells; test: MTT proliferation inhibition, thyroid cancer cells; type: cell-based, human; set-up: concentration or dose not given beside the values; conditions: 48 h
Procedure, shortened: as §1

Substance | A570 nm/A630 nm ([1]; 20 μg/mL) | Inhibition Rate of spleen lymphocyte proliferation ([1]; 20 μg/mL) | A570 nm/A630 nm ([1]; 40 μg/mL) | Inhibition Rate of spleen lymphocyte proliferation ([1]; 40 μg/mL) | rate of growth inhibition [2] | Swelling ([3]; 20 mg/kg once daily for 5 days) | Inhibition rate ([3]; 20 mg/kg once daily for 5 days) | Swelling ([3]; 40 mg/kg once daily for 5 days) | Inhibition rate ([3]; 40 mg/kg once daily for 5 days) | rate of growth inhibition [4] | rate of growth inhibition [5] | rate of growth inhibition [6] | rate of growth inhibition [7] | IL-1β ([8]; 20 μg/mL) | Inhibition Rate of IL-1β production ([8]; 20 μg/mL) | IL-1β ([8]; 40 μg/mL) | Inhibition Rate of IL-1β production ([8]; 40 μg/mL) | AUC0-∞ [9] | CL [9] | MRT0-∞ [9] | also measured
mPEG2-NHS10k-Arg-Gly-Ala-Asp-Arg-Ala-Gly-Gly-Gly-Gly-Arg-Gly-Asp ({mPEG2‑NHS 10 kDa}-RGADRAGGGGRGD) [mPEG2-NHS10k-HM-1] | 0.5533 ± 0.1067 | 20.09% | 0.4747 ± 0.1174 | 31.44% | 42.39 ± 12.65% | 4.72 ± 0.72* mg | 23.57% | 4.13 ± 0.35** mg | 33.19% | 54.82 ± 17.10% | 60.49 ± 18.05% | 47.62 ± 11.11% | 45.28 ± 13.96% | 675.25 ± 11.93 pg/mL | 27.09% | 546.79 ± 14.12 pg/mL | 40.96% | 4858.62 ± 10.62 mg/L/h | 0.432 ± 0.103 mL/min/kg | 13.08 ± 3.66 h | A570 nm/A630 nm ([1]; 10 μg/mL): 0.6239 ± 0.1086; Inhibition Rate of spleen lymphocyte proliferation ([1]; 10 μg/mL): 9.90%; Swelling ([3]; 10 mg/kg once daily for 5 days): 5.39 ± 0.14 mg; Inhibition rate ([3]; 10 mg/kg once daily for 5 days): 12.76%; IL-1β ([8]; 10 μg/mL): 758.32 ± 15.18 pg/mL; Inhibition Rate of IL-1β production ([8]; 10 μg/mL): 18.12%; T1/2β (half-life) [9]: 15.27 ± 0.11 h; rate of growth inhibition [10]: 43.52 ± 11.16%; rate of growth inhibition [11]: 40.47 ± 12.03%
mPEG-SC20k-Arg-Gly-Ala-Asp-Arg-Ala-Gly-Gly-Gly-Gly-Arg-Gly-Asp ({mPEG‑SC 20 kDa}-RGADRAGGGGRGD) [mPEG-SC20k-HM-1] | 0.6213 ± 0.0996 | 9.91% | 0.5444 ± 0.1120 | 21.06% | 49.35 ± 10.04% | 5.38 ± 0.17 mg | 12.36% | 4.69 ± 0.79* mg | 23.67% | 62.93 ± 20.09% | 76.93 ± 23.14% | 55.56 ± 12.13% | 53.87 ± 15.66% | 761.42 ± 16.96 pg/mL | 18.74% | 653.20 ± 18.59 pg/mL | 30.29% | 4310.23 ± 12.98 mg/L/h | 0.225 ± 0.155 mL/min/kg | 17.64 ± 12.67 h | A570 nm/A630 nm ([1]; 80 μg/mL): 0.4741 ± 0.1270; Inhibition Rate of spleen lymphocyte proliferation ([1]; 80 μg/mL): 31.25%; Swelling ([3]; 80 mg/kg once daily for 5 days): 3.77 ± 0.33** mg; Inhibition rate ([3]; 80 mg/kg once daily for 5 days): 38.58%; IL-1β ([8]; 80 μg/mL): 512.27 ± 10.50 pg/mL; Inhibition Rate of IL-1β production ([8]; 80 μg/mL): 45.33%; T1/2β (half-life) [9]: 21.46 ± 0.24 h; rate of growth inhibition [10]: 49.26 ± 10.32%; rate of growth inhibition [11]: 50.78 ± 13.46%
